Patent US5314999A, “Derivatives of basic polyene macrolides and their preparation” (Laboratoires Mayoly-Spindler, priority 1989, dated 1994)
pIC50: −log10 of the molar value. In brackets after ≈: the same amount, converted by molar mass. Where two headings read alike, the source gives them in different places.

Legend:
Candida albicans = experiment: Growth inhibition in liquid medium (Sabouraud broth); assay type: cell-based; conditions: Sabouraud broth, 28° C., 18 hours, read-out: IC 50 (growth-inhibiting concentration of 50%)
Experimental: (§1) A.1 : Study of the antibiotic efficiency of AmB derivatives in liquid medium against different yeasts
(§2) The antibiotic efficiency was tested by the growth inhibition method in liquid medium (Sabouraud broth) in the presence of different concentrations of the derivatives studied.
(§3) A yeast suspension was cultivated in a broth in such a manner that about 1×10^2 cell/ml were obtained.
(§4) The tubes containing the different concentrations of antifungal substance were inoculated with the same amount of yeast cells, and were then incubated at 28° C. for 18 hours with stirring. For each concentration of antifungal substance, two identical tubes were prepared.
(§5) The inhibition of fungal growth corresponding to the different concentrations was evaluated for each molecule by spectrophotometry at 620 nm and expressed in percent with respect to a reference solution without antifungal substance.

Cryptoccocus neoformans = experiment: as above; assay type: cell-based; conditions: 18 h, Sabouraud broth, 28° C., 18 hours; read-out: IC 50 (growth-inhibiting concentration of 50%)
Experimental: as §1, §2, §3, §4, §5

Pytirosporum orbiculare = experiment: as above; assay type: cell-based; conditions: Sabouraud broth, 28° C., 18 hours; read-out: IC 50 (growth-inhibiting concentration of 50%)
Experimental: as §1, §2, §3, §4, §5

Saccharomyces cerevisiae = experiment: as above; assay type: cell-based; conditions: Saccharomyces cerevisiae, 18 h, Sabouraud broth, 28° C., 18 hours; read-out: IC 50 (growth-inhibiting concentration of 50%)
Experimental: as §1, §2, §3, §4, §5

Aspergillus flavus = experiment: Diffusion method in agar-agar medium (Sabouraud agar-agar); assay type: cell-based; conditions: Sabouraud agar-agar, disc diameter 1 cm, 0.1 ml
Experimental: (§6) A.2 : Study of the antibiotic efficiency of amphotericine B derivatives in agar-agar medium against Aspergillus
(§7) The antibiotic activity was tested by the diffusion method in agar-agar medium (Sabouraud agar-agar).
(§8) The efficiency of each molecule was determined by the size of the growth-inhibiting zone around a WHATMAN 3M paper disc impregnated with the antibiotic substance of a given concentration.
(§9) A suspension of Aspergillus spores in a broth was prepared, 0.2 ml of this suspension was used to inoculate at its surface an agar-agar medium which was solidified in such a manner that a homogeneous growth layer was obtained. After spreading, the WHATMAN 3M paper discs (diameter: 1 cm) were placed on the surface of the agar-agar, and then impregnated with 0.1 ml of the antibiotic substance at different concentrations.

Aspergillus fumigatus = experiment: as above; assay type: cell-based; conditions: Sabouraud agar-agar, disc diameter 1 cm, 0.1 ml; for IC (1 cm inhibition zone): Aspergillus fumigatus, read-out: concentration giving a growth inhibition of 1 cm around a disc in solid medium
Experimental: as §6, §7, §8, §9

red corpuscles [1] = experiment: Toxicity on red corpuscles (lysis), mice; assay type: cell-based; conditions: 37° C., 1 hour 30, 90 min, 90 min, read-out: LD 50 (dose which leads to lysis in 50% of the erythrocytes)
Experimental: (§10) B.1: Study of the toxicity on red corpuscles
(§11) All the solutions of the AmB derivatives according to the invention were prepared immediately before use by diluting 4 mg of substance in 100 μl of 5% glucose solution, and then, after 15 minutes protected from light, 100 μl of sterile distilled water are added, and the mixture is made up to stock solutions of 4 mg/ml with a 5% glucose solution. For comparative study of the effects of AmB, 4 mg of FUNGIZONE are diluted with 1 ml of 5% glucose.
(§12) The cells are prepared by placing 1 ml of a peripheral blood sample into a tube together with Ficollhypaque to remove the lymphocytes, and then centrifuging the mixture at 2000 rpm for 20 minutes. The remaining red corpuscles are recovered, washed once with 0.9% NaCl and then twice with 150 Mm KCl, 0.5 Mm tris-HCl, pH 7.4.
(§13) A 1.25% suspension is then prepared with 150 mM KCl solution, 0.5 mM tris-HCl, pH 7.4, and 150 μl thereof are distributed in wells along with 50 μl of each of the dilutions of the derivatives, plus a control well (5% glucose solution).
(§14) The cells are then incubated at 37° C. in a steam cabinet for 1 hour 30.
(§15) To evaluate the cell lysis, haemoglobin is essayed by removing 100 μl of the supernatant in each well and diluting the sample with 1 ml of distilled water.
(§16) The haemoglobin concentration is calculated by measuring the optical density at 540 nm and taking into account the absorption of the derivatives of amphotericine B.
(§17) LD 50 is the dose which leads to lysis in 50% of the erythrocytes (a control of 100% lysis is obtained with distilled water, and reference lysis of 0% is obtained with the 5% glucose solution).

[2] = Toxicity on nucleated cells, mice thymocytes; assay type: cell-based; conditions: mouse, thymocytes, 1 hour 30, trypan blue, read-out: LD 50 (concentration leading to a mortality of 50%)
[3] = Toxicity on nucleated cells, X 63 mice lymphoma B; assay type: cell-based; conditions: mouse, x 63 lymphoma cells, 1 hour 30, trypan blue, read-out: LD 50 (concentration leading to a mortality of 50%)
PBL = experiment: Toxicity on nucleated cells, human PBL; assay type: cell-based; conditions: 90 min
Experimental: (§18) B.2: Study of the toxicity on nucleated cells
(§19) The solutions of the amphotericine B derivatives are prepared similarly to those mentioned in paragraph B.1.
(§20) The cells are prepared by placing 20 ml of blood diluted to 1/2 with 0.9% NaCl into a tube together with 10 ml of Ficoll-hypaque, and the mixture is centrifuged at 2000 rpm for 30 minutes. The cell nuclei are recovered and washed twice with PBS buffer containing 5% of foetal calf serum.
(§21) The cells are prepared by suspending 1.14×10^6 cells/ml in RPMI 1640 containing 2.5% of foetal calf serum and by filling each well with 150 μl. 50 μl of each dilution of the derivatives are added and also one control (5% glucose solution).
(§22) The cells are then incubated in a steam cabinet at a CO2 concentration of 5% for 1 hour 30 at 37° C. or at ambient temperature.
(§23) To evaluate the toxicity of the derivatives, a cell count in the presence of trypan blue is made, and the LD 50 (concentration of the derivative leading to a mortality of 50%) is calculated with respect to the control (5% glucose solution) for each concentration of each derivative.

red corpuscles [4] = experiment: Toxicity on red corpuscles (lysis), human; assay type: cell-based; conditions: 37° C., 1 hour 30, 90 min, 90 min, read-out: LD 50 (dose which leads to lysis in 50% of the erythrocytes)
Experimental: as §10, §11, §12, §13, §14, §15, §16, §17

DAUDI (human lymphoma B) = experiment: Toxicity on nucleated cells, DAUDI human lymphoma B; assay type: cell-based; conditions: 1 hour 30, trypan blue, 90 min, read-out: LD 50 (concentration leading to a mortality of 50%)
Candida albicans B 2630 = experiment: Growth inhibition in liquid medium (Sabouraud broth); assay type: cell-based; conditions: B2630, Sabouraud broth, 28° C., 18 hours, read-out: IC 50 (growth-inhibiting concentration of 50%)
Experimental: as §1, §2, §3, §4, §5

[5] = Toxicity on red corpuscles (lysis), mice; assay type: cell-based; conditions: mouse, red blood cells, 37° C., 1 hour 30, read-out: LD 50 (dose which leads to lysis in 50% of the erythrocytes)
Experimental: as §10, §11, §12, §13, §14, §15, §16, §17

[6] = Toxicity on nucleated cells, mice T lymph gland cells; assay type: cell-based; conditions: mouse, 1 hour 30, trypan blue, read-out: LD 50 (concentration leading to a mortality of 50%)
Experimental: as §18, §19, §20, §21, §22, §23

[7] = Toxicity on nucleated cells, mice B lymph gland cells; assay type: cell-based; conditions: mouse, 1 hour 30, trypan blue, read-out: LD 50 (concentration leading to a mortality of 50%)
Experimental: as §18, §19, §20, §21, §22, §23

[8] = Toxicity on nucleated cells, human bone marrow; assay type: cell-based; conditions: 1 hour 30, trypan blue, read-out: LD 50 (concentration leading to a mortality of 50%)
Experimental: as §18, §19, §20, §21, §22, §23

[9] = Toxicity on nucleated cells, human thymocytes; assay type: cell-based; conditions: 1 hour 30, trypan blue, read-out: LD 50 (concentration leading to a mortality of 50%)
Experimental: as §18, §19, §20, §21, §22, §23

X 63 (mice lymphoma B) = experiment: Toxicity on nucleated cells, X 63 mice lymphoma B; assay type: cell-based; conditions: 1 hour 30, trypan blue, 90 min, read-out: LD 50 (concentration leading to a mortality of 50%)
[10] = Toxicity on nucleated cells, DAUDI human lymphoma B; assay type: cell-based; conditions: human, daudi lymphoma b cells, 1 hour 30, trypan blue, read-out: LD 50 (concentration leading to a mortality of 50%)
[11] = Solubility of the AmB derivatives; assay type: physicochemical; conditions: 5% glucose solution, ambient temperature, up to saturation; read-out: solubility (soluble up to a concentration of)
Experimental: C.2. Solubility of the AmB derivatives according to the present invention
AmB or the derivatives obtained are dissolved at ambient temperature in a 5% glucose solution up to saturation.

[12] = human PBL, 1 hour 30, trypan blue, read-out: LD 50 (concentration leading to a mortality of 50%)

SMILES	pIC50 (Cryptoccocus neoformans)	pIC50 (Pytirosporum orbiculare)	pIC50 (Saccharomyces cerevisiae)	HC50 (red corpuscles [1]) [µM]	CC50 at 1.5 h [2] [µM]	CC50 at 1.5 h [3] [mM]	CC50 (PBL; [12]) [mM]	HC50 (red corpuscles [4]) [µM]	CC50 (DAUDI (human lymphoma B)) [mM]	pIC50 (Candida albicans B 2630)	pIC50 (Candida albicans; Candida albicans, 18 h)	concentration giving a growth inhibition of 1 cm around a disc in solid medium (Aspergillus flavus)	IC (1 cm inhibition zone) (Aspergillus fumigatus) [µM]	CC50 at 1.5 h [6] [µM]	CC50 at 1.5 h [7] [µM]	CC50 at 1.5 h [8] [mM]	CC50 at 1.5 h [9] [µM]	solubility [11] [mg/mL]	further results
CC(=O)NC[C@H]1OC(O)(CN[C@@H]2[C@H](O)[C@H](O[C@H]3/C=C/C=C/C=C/C=C/C=C/C=C/C=C/[C@H](C)[C@@H](O)[C@@H](C)[C@H](C)OC(=O)C[C@H](O)C[C@H](O)CC[C@@H](O)[C@H](O)C[C@H](O)C[C@]4(O)C[C@H](O)[C@@H](C(=O)O)[C@H](C3)O4)O[C@H](C)[C@H]2O)[C@@H](O)[C@@H]1O (some centres unmarked) [AmB 23 F, 6-deoxy-6-N-acetyl-1-deoxy-1-aminofructosyl-AmB]	6.82	7.12	5.80	12	3	> 1	0.08	50	> 1										pIC50 (Candida albicans): 6.40; IC (1 cm inhibition zone) (Aspergillus flavus; Aspergillus flavus, read-out: concentration giving a growth inhibition of 1 cm around a disc in solid medium): 600 µM; concentration giving a growth inhibition of 1 cm around a disc in solid medium (Aspergillus fumigatus): 2 × 10^-4 molarity
C[C@@H]1[C@H](O)[C@@H](C)/C=C/C=C/C=C/C=C/C=C/C=C/C=C/[C@H](O[C@@H]2O[C@H](C)[C@@H](O)[C@H](NCC3(O)O[C@H](C(N)=O)[C@@H](O)[C@@H]3O)[C@@H]2O)C[C@@H]2O[C@](O)(C[C@@H](O)C[C@@H](O)[C@H](O)CC[C@@H](O)C[C@@H](O)CC(=O)O[C@H]1C)C[C@H](O)[C@H]2C(=O)O (stereo partly drawn) [AmB 12 F, 1-amino-1-deoxy-D-arabinoglucuronamidyl-AmB]	7.19	7.02	5.96		4	> 1	> 1	100	> 1	6.62	7.05	3 × 10^-4 molarity	80	10	10	> 1	> 300		HC50 at 1.5 h [5]: 20 µM; CC50 (PBL; human PBLs, AmB 12 derivative, comparison of different catalysts (Table 4), listed as Oxalic acid NMG salt, read-out: LD 50 (the source's name)): > 1 mM
C[C@@H]1[C@H](O)[C@@H](C)/C=C/C=C/C=C/C=C/C=C/C=C/C=C/[C@H](O[C@@H]2O[C@H](C)[C@@H](O)[C@H](NCC(=O)[C@@H](O)[C@@H]3OC(c4ccccc4)OC[C@H]3O)[C@@H]2O)C[C@@H]2O[C@](O)(C[C@@H](O)C[C@@H](O)[C@H](O)CC[C@@H](O)C[C@@H](O)CC(=O)O[C@H]1C)C[C@H](O)[C@H]2C(=O)O (stereo partly drawn) [AmB 20 F, 1-deoxy-1-amino-4,6-O-benzylidene-D-fructosyl-AmB]	7.35	7.00	5.96	120	8		> 1	200		6.82	7.07	1.5 × 10^-4 molarity	200	100	100	1	> 300		CC50 (X 63 (mice lymphoma B)): > 1 mM; CC50 at 1.5 h [10]: > 1 mM
C[C@@H]1[C@H](O)[C@@H](C)/C=C/C=C/C=C/C=C/C=C/C=C/C=C/[C@H](O[C@@H]2O[C@H](C)[C@@H](O)[C@H](NCC3(O)O[C@H](C(=O)O)[C@@H](O)[C@@H]3O)[C@@H]2O)C[C@@H]2O[C@](O)(C[C@@H](O)C[C@@H](O)[C@H](O)CC[C@@H](O)C[C@@H](O)CC(=O)O[C@H]1C)C[C@H](O)[C@H]2C(=O)O (stereo partly drawn) [AmB 17, 1-amino-1-deoxy-D-arabinoglucuronyl-AmB]																		20 (≈ 18.2 mM)	
C[C@@H]1[C@H](O)[C@@H](C)/C=C/C=C/C=C/C=C/C=C/C=C/C=C/[C@H](O[C@@H]2O[C@H](C)[C@@H](O)[C@H](NCC(=O)[C@@H](O)[C@@H]3OC(c4ccccc4)OC[C@H]3O)[C@@H]2O)C[C@@H]2O[C@](O)(C[C@@H](O)C[C@@H](O)[C@H](O)CC[C@@H](O)C[C@@H](O)CC(=O)O[C@H]1C)C[C@H](O)[C@H]2C(=O)O (stereo partly drawn) [AmB 20, 1-deoxy-1-amino-4,6-O-benzylidene-D-fructosyl-AmB]																		40 (≈ 34.1 mM)	
C[C@@H]1[C@H](O)[C@@H](C)/C=C/C=C/C=C/C=C/C=C/C=C/C=C/[C@H](O[C@@H]2O[C@H](C)[C@@H](O)[C@H](NCC3(O)O[C@H](C(N)=O)[C@@H](O)[C@@H]3O)[C@@H]2O)C[C@@H]2O[C@](O)(C[C@@H](O)C[C@@H](O)[C@H](O)CC[C@@H](O)C[C@@H](O)CC(=O)O[C@H]1C)C[C@H](O)[C@H]2C(=O)O (stereo partly drawn) [AmB 12, 1-amino-1-deoxy-D-arabinoglucuronamidyl-AmB]																		150 (≈ 136 mM)	
